# Results taken from patent publication US20160200762A1, “Bioactive polypeptide DELQ and preparation method as well as application thereof” (SHANGHAI JIAOTONG UNIVERSITY, priority 2012, published 2016).
# Where a SMILES comes first, the peptide text is derived from it.
# Assays:
# [1] = in vitro antioxidant activity detection with the [DPPH.] method (radical removing rate); assay type: biochemical
# Protocol: (1) Preparing 1 mmol/L [DPPH.] Methanol Solution:
# Weighting […] [DPPH.] with the analytical balance and dissolving in 1 ml methanol solution for obtaining 1 mmol/L [DPPF.] methanol solution, storing with tinfoil for avoiding light, wherein the [DPPF.] methanol solution is prepared before use.
# (2) Standard Curve Detection of [DPPH.] Methanol Solution:
# Adding 100 μL [DPPH.] methanol standard curve sample into the 96-hole cell culturing plate according to a Table 2, waiting for 90 min at a room temperature, detecting absorbance values at 517 nm with the microplate reader.
# Accordingly, curves are fitted and a regression equation is calculated with Excel, and results thereof are shown in FIG. 8 (the regression equation: y=−0.192x+0.2271, R^2=0.9991). […] From the results, absorbance values and [DPPF.] contents have an inverse relationship, i.e. the less the [DPPH.] content is, the […] the absorbance value will be, which means a stronger radical removing ability.
# (3) Antioxidant Activity Detection of the Bioactive Polypeptide DELQ with [DPPH.] Method […]
# 2) blank group: adding 80 μL 1 mmol/L [DPPF.] methanol solution and 20 μL deionized water into the same 96-hole cell culturing plate for forming a blank group.
# After adding the test sample, waiting at the room temperature for 90 min, detecting the absorbance values at 517 nm with the microplate reader, and calculating a radical removing ratio according to a following formula, wherein results thereof are shown in Table 3.
# [2] = total antioxidant capacity detection with the FRAP (Ferric Reducing Ability Power) method; assay type: biochemical; details: sample concentration 4.00 mg/mL
# Protocol: (1) Preparing FRAP Working Fluid:
# According to the FRAP detection reagent kit, thorough mixing 7.5 mL TPTZ diluent, 750 μL TPTZ solution, and 750 μL detection buffer, incubating in a 37° C. water bath, and using in 2 h.
# (2) Drawing a FeSO4 Standard Curve:
# Adding 180 μL FRAP working fluid into the 96-hole cell culturing plate, then adding 5 μL FeSO4 standard curve solution according to Table 4, gently mixing, incubating at 37° C. for 3-5 min, and detecting absorbance values at 593 nm with the microplate reader.
# FeSO4 concentration and the absorbance value have a good proportional relationship, i.e. the higher the FeSO4 concentration is, the higher absorbance value will be. According to the present invention, FeSO4 standard curve results are shown in FIG. 10, the standard curve has a good linear relationship, wherein a correlation coefficient thereof is 0.998. Precision and accuracy of the FeSO4 curve satisfy testing requirements, and are applicable for subsequent calculation.
# (3) Bioactive Polypeptide DELQ Antioxidant Capacity Detection with FRAP Method
# Adding 180 μL FRAP working fluid into the 96-hole cell culturing plate, adding 5 μL ddH2O into a blank control hole, adding 5 μL testing sample into a sample hole, adding 5 μL phytic acid into a positive control, gently mixing, incubating at 37° C. for 3-5 min, and detecting absorbance values at 593 nm with the microplate reader. […]
# [3] = simulated in vitro gastrointestinal digestion (pepsin, then pancreatin), UPLC-Q-TOF-MS analysis; assay type: in vitro ADME; details: 500 μg/mL; pepsin pH 2.0 37° C. 90 min, then pancreatin pH 7.5 37° C. 150 min
# Protocol: The experiment is divided into two steps. Firstly, preparing a 500 μg/mL DELQ solution, adding pepsin with a ratio of 20 mg the pepsin for every gram of the DELQ, adjusting a pH value of the reaction solution to 2.0, reacting with a temperature kept in a 37° C. thermostatic waterbath for 90 min; then adjusting a pH value to 7.5, and adding pancreatin with a ratio of 40 mg the pancreatin for every gram of the DELQ, and reacting with a temperature kept in a 37° C. thermostatic waterbath for 150 min; inactivating disgestive enzymes with a 95° C. waterbath for 5 min; and freeze-drying the reaction solution for obtaining dry powder thereof, and storing at −20° C. for further use.
# Picking 0.2 mg powder sample after stimulated in vitro gastrointestinal digestion, adding 50 μL water and 450 μL pure ethanol, thorough shocking before putting into a −20° C. freezer for 20 min, centrifuging at 15000 rpm for 30 min, collecting 400 μL supernatant for UPLC-Q-TOF-MS analysis. […]
# According to the above experiment conditions, the bioactive polypeptides DELQ before and after treatment with digestive enzymes are analyzed by UPLC-Q-TOF-MS, a total ion stream obtained is shown in FIG. 11. […]
smiles,measurement,setting,value
O=P(O)(O)O[C@H]1[C@H](OP(=O)(O)O)[C@@H](OP(=O)(O)O)[C@H](OP(=O)(O)O)[C@@H](OP(=O)(O)O)[C@H]1OP(=O)(O)O [phytic acid],[DPPH.] radical removing rate,"[1]; negative control, concentration not given",58.49 ± 0.08%
same,FRAP,[2],0.0089 mmol/g
same,corresponding FeSO4 concentration,[2]; 593 nm,0.0356 ± 0.0055 mmol/L
Cc1c(C)c2c(c(C)c1O)CCC(C)(C(=O)O)O2 (stereo not drawn) [Trolox],[DPPH.] radical removing rate,"[1]; positive control 1, 2.5 mg/mL Trolox",99.96%
same,[DPPH.] radical removing rate,"[1]; positive control 2, 0.025 g/mL Trolox",71.08 ± 0.03%
"CC(C)C[C@H](NC(=O)[C@H](CCC(=O)O)NC(=O)[C@@H](N)CC(=O)O)C(=O)N[C@@H](CCC(N)=O)C(=O)O [DELQ, Asp-Glu-Leu-Gln] (H-DELQ-OH; N-terminus and C-terminus assumed)",stability under simulated in vitro gastrointestinal digestion,[3],stable
